This passage reports IC50 results from patent US20240415819A1, “MACROCYCLIC COMPOUNDS AS PROTEASOME SUBUNIT BETA TYPE-5 INHIBITORS” (Lead Discovery Center GmbH, priority 2021, published 2024).

The target of assay [1] is T1, β5 subunit of the human immunoproteasome (IPS) (Homo sapiens, UniProt P28062).
T1 construct: purchased Boston Biochem E-370
The experiment in a line: β5 inhibition assay, human immunoproteasome (Suc-LLVY-AMC). In kind it is biochemical. Conditions: IC50 class, Suc-LLVY-AMC substrate. The essentials: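 Human immunoproteasome (1 nM final) was preincubated 10 min at RT with compound in 100 mM HEPES pH 7.5, 50 mM NaCl, 0.02% SDS, 1 mM DTT. Suc-LLVY-AMC (22.6 μM final) was then added for 4 h at RT in the dark. After stopping with 1 μM bortezomib, AMC fluorescence was read (ex 355/em 460 nm).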

Assay [2] has as its system HT-29 cells. Kind of assay: CellTiter-Glo luminescent cell viability assay with HT-29 cells (72h incubation). It counts as cell-based, human. As to conditions: Homo sapiens, HT-29, HT29 cells, read-out: CTG HT29. The essentials: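 400 cells per well in DMEM/10% FCS were dosed after 24 h and kept 72 h at 37 °C, 5% CO2. ATP-based luminescence (CellTiter-Glo) normalized to DMSO and 10 μM staurosporine controls; IC50 by dose-response fit.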

For assay [3], the system named is B cell. The experiment in a line: B cell diff. (Table 4, method not given). It counts as cell-based. Conditions: B-cell.

For `Cc1ccc2cc1CNC(=O)[C@H](CCc1ccccc1)NC(=O)[C@@H](NC1COC1)CC(=O)N1CCCC(CCO2)C1` (stereo partly drawn) [Compound 35, (9S,12S)-5^4-methyl-12-(oxetan-3-ylamino)-9-phenethyl-4-oxa-7,10-diaza-1(3,1)-piperidina-5(1,3)-benzenacyclotetradecaphane-8,11,14-trione], the values for the IC50 in assay [1], in assay [2] and in assay [3] were under 100 nM, 100 to 500 nM and under 100 nM, respectively.
Turning to `Cc1ccc2cc1CNC(=O)[C@H](CCc1ccccc1)NC(=O)[C@@H](NC(=O)C(C)(C)C)CC(=O)N1CCCC(CCO2)C1` (stereo partly drawn) [Compound 27, N-((9S,12S)-5^4-methyl-8,11,14-trioxo-9-phenethyl-4-oxa-7,10-diaza-1(3,1)-piperidina-5(1,3)-benzenacyclotetradecaphane-12-yl)pivalamide], the IC50 in assay [1], in assay [2] and in assay [3] was under 100 nM each time.
Take `Cc1ccc2cc1CNC(=O)[C@H](CCc1ccccc1)NC(=O)[C@@H](NC(=O)Cc1ccccc1)CC(=O)N1CCCC(CCO2)C1` (stereo partly drawn) [Compound 29, N-((9S,12S)-5^4-methyl-8,11,14-trioxo-9-phenethyl-4-oxa-7,10-diaza-1(3,1)-piperidina-5(1,3)-benzenacyclotetradecaphane-12-yl)-2-phenylacetamide]: the IC50 in assay [1], in assay [2] and in assay [3] was under 100 nM in each case.
As for `Cc1ccc2cc1CNC(=O)[C@H](CCc1ccccc1)NC(=O)[C@@H](Nc1ncccn1)CC(=O)N1CCCC(CCO2)C1` (stereo partly drawn) [Compound 34, (9S,12S)-5^4-methyl-9-phenethyl-12-(pyrimidin-2-ylamino)-4-oxa-7,10-diaza-1(3,1)], the IC50 in assay [1], in assay [2] and in assay [3] was under 100 nM throughout.
As for `CC(=O)N[C@H]1CC(=O)N2CCCC(CCOc3ccc(C)c(c3)CNC(=O)[C@H](CCc3ccccc3)NC1=O)C2` (stereo partly drawn) [Compound 33, N-((9S,12S)-5^4-methyl-8,11,14-trioxo-9-phenethyl-4-oxa-7,10-diaza-1(3,1)-piperidina-5(1,3)-benzenacyclotetradecaphane-12-yl)acetamide], the IC50 in assay [1], in assay [2] and in assay [3] was under 100 nM each time.
As to `Cc1ccc2cc1CNC(=O)C(CCc1cnccn1)NC(=O)[C@@H](NC(=O)C1(c3ccc(N)cc3)CC1)CC(=O)N1CCCC(CCO2)C1` (stereo partly drawn) [Compound 371, 1-(4-aminophenyl)-N-((9S,12S)-5^4-methyl-8,11,14-trioxo-9-(2-(pyrazin-2-yl)ethyl)-4-oxa-7,10-diaza-1(3,1)-piperidina-5(1,3)-benzenacyclotetradecaphane-12-yl)cyclopropane-1-carboxamide], the IC50 in assay [1] and in assay [2] was under 100 nM throughout.
Consider `Cc1ccc2cc1CNC(=O)[C@H](CCc1ccccc1)NC(=O)[C@@H](NC(=O)OCc1ccccc1)CCC(=O)N1CCC(CO2)C1` (stereo partly drawn) [Compound 349, benzyl ((8S,11S)-4^4-methyl-7,10,14-trioxo-8-phenethyl-3-oxa-6,9-diaza-1(3,1)-pyrrolidina-4(1,3)-benzenacyclotetradecaphane-11-yl)carbamate], for which the IC50 in assay [1] was under 100 nM; in assay [2], 100 to 500 nM.
As to `Cc1cc2cc(c1C)CNC(=O)C(c1cnn(C)c1)NC(=O)CCC(=O)N1CCCC(CCO2)C1` (centres unmarked) [Compound 355, 5^4,5^5-dimethyl-9-(1-methyl-1H-pyrazol-4-yl)-4-oxa-7,10-diaza-1(3,1)-piperidina-5(1,3)-benzenacyclotetradecaphane-8,11,14-trione], the IC50 is under 100 nM in assay [1] and 1000 to 5000 nM in assay [2].
`CC(=O)N[C@H]1CC(=O)N2CCCC(CCOc3ccc(C)c(c3)CNC(=O)C(c3cnn(-c4ccccc4)c3)NC1=O)C2` (stereo partly drawn) [Compound 559, N-((12S)-5^4-methyl-8,11,14-trioxo-9-(1-phenyl-1H-pyrazol-4-yl)-4-oxa-7,10-diaza-1(3,1)-piperidina-5(1,3)-benzenacyclotetradecaphane-12-yl)acetamide]: the IC50 in assay [1] and in assay [2] was under 100 nM in each case.
Turning to `Cc1ccc2cc1CNC(=O)[C@H](CCc1ccccc1)NC(=O)[C@@H](NC(=O)C(C)c1ccc(N)cc1)CC(=O)N1CCCC(CCO2)C1` (stereo partly drawn) [Compound 309, 2-(4-aminophenyl)-N-((9S,12S)-5^4-methyl-8,11,14-trioxo-9-phenethyl-4-oxa-7,10-diaza-1(3,1)-piperidina-5(1,3)-benzenacyclotetradecaphane-12-yl)propanamide], the IC50 in assay [1] and in assay [2] was under 100 nM throughout.
As to `Cc1ccc2cc1CNC(=O)[C@H](CCc1ccccc1)NC(=O)[C@@H](NC(=O)Cc1nnc(N)[nH]1)CC(=O)N1CCCC(CCO2)C1` (stereo partly drawn) [Compound 340, 2-(5-amino-1H-1,2,4-triazol-3-yl)-N-((9S,12S)-5^4-methyl-8,11,14-trioxo-9-phenethyl-4-oxa-7,10-diaza-1(3,1)-piperidina-5(1,3)-benzenacyclotetradecaphane-12-yl)acetamide], the IC50 in assay [1] is under 100 nM; in assay [2], 100 to 500 nM.
The corresponding values for `Cc1ccc2cc1CNC(=O)C(CCc1ccncc1)NC(=O)[C@@H](NC(=O)C1(c3ccc(N)cc3)CC1)CC(=O)N1CCCC(CCO2)C1` (stereo partly drawn) [Compound 343, 1-(4-aminophenyl)-N-((12S)-5^4-methyl-8,11,14-trioxo-9-(2-(pyridin-4-yl)ethyl)-4-oxa-7,10-diaza-1(3,1)-piperidina-5(1,3)-benzenacyclotetradecaphane-12-yl)cyclopropane-1-carboxamide] are under 100 nM and under 100 nM.
The corresponding values for `Cc1ccc2cc1CNC(=O)[C@H](CCc1ccccc1)NC(=O)[C@@H](NC(=O)c1ncccn1)CC(=O)N1CCCC(CCO2)C1` (stereo partly drawn) [Compound 32, N-((9S,12S)-5^4-methyl-8,11,14-trioxo-9-phenethyl-4-oxa-7,10-diaza-1(3,1)-piperidina-5(1,3)-benzenacyclotetradecaphane-12-yl)pyrimidine-2-carboxamide] are under 100 nM and under 100 nM.
The corresponding values for `Cc1ccc2cc1CNC(=O)C(CCc1ccc(C3(C)COC3)cc1)NC(=O)[C@@H](NC(=O)OCc1ccccc1)CC(=O)N1CCCC(CCO2)C1` (stereo partly drawn) [Compound 510, benzyl ((12S)-5^4-methyl-9-(4-(3-methyloxetan-3-yl)phenethyl)-8,11,14-trioxo-4-oxa-7,10-diaza-1(3,1)-piperidina-5(1,3)-benzenacyclotetradecaphane-12-yl)carbamate] are under 100 nM and under 100 nM.
Regarding `CC(=O)N[C@H]1CC(=O)N2CCCC(CCOc3ccc(C)c(c3)CNC(=O)C(Cc3ccccc3)NC1=O)C2` (stereo partly drawn) [Compound 558, N-((12S)-9-benzyl-5^4-methyl-8,11,14-trioxo-4-oxa-7,10-diaza-1(3,1)-piperidina-5(1,3)-benzenacyclotetradecaphane-12-yl)acetamide], the IC50 in assay [1] and in assay [2] was under 100 nM each time.
On to `CC(=O)c1ccc(CC(=O)N[C@H]2CC(=O)N3CCCC(CCOc4ccc(C)c(c4)CNC(=O)[C@H](CCc4ccccc4)NC2=O)C3)cc1` (stereo partly drawn) [Compound 341, 2-(4-acetylphenyl)-N-((9S,12S)-54-methyl-8,11,14-trioxo-9-phenethyl-4-oxa-7,10-diaza-1(3,1)-piperidina-5(1,3)-benzenacyclotetradecaphane-12-yl)acetamide], for which the IC50 in assay [1] and in assay [2] was under 100 nM each time.
Turning to `CC(=O)N[C@H]1CC(=O)N2CCCC(CCOc3ccc(C)c(c3)CNC(=O)C(c3cnn(CCOCCOCCOCCN)c3)NC1=O)C2` (stereo partly drawn) [Compound 566, N-((12S)-9-(1-(2-(2-(2-(2-aminoethoxy)ethoxy)ethoxy)ethyl)-1H-pyrazol-4-yl)-5^4-methyl-8,11,14-trioxo-4-oxa-7,10-diaza-1(3,1)-piperidina-5(1,3)-benzenacyclotetradecaphane-12-yl)acetamide], the figures for the IC50 in assay [1] and in assay [2] were under 100 nM and 100 to 500 nM, respectively.
In the same order, the values of `CC(=O)N[C@H]1CC(=O)N2CCCC(CCOc3ccc(C)c(c3)CNC(=O)C(c3cn(C)cn3)NC1=O)C2` (stereo partly drawn) [Compound 557, N-((12S)-5^4-methyl-9-(1-methyl-1H-imidazol-4-yl)-8,11,14-trioxo-4-oxa-7,10-diaza-1(3,1)-piperidina-5(1,3)-benzenacyclotetradecaphane-12-yl)acetamide] are under 100 nM and 100 to 500 nM.
On to `Cc1ccc2cc1CNC(=O)[C@H](CCc1ccccc1)NC(=O)[C@@H](NC(=O)OCc1ccccc1)CCCCC(=O)N1CC(CCO2)C1` [Compound 353, benzyl ((9S,12S)-5^4-methyl-8,11,17-trioxo-9-phenethyl-4-oxa-7,10-diaza-1(3,1)-azetidina-5(1,3)-benzenacycloheptadecaphane-12-yl)carbamate], for which the IC50 in assay [1] and in assay [2] was under 100 nM each time.
Consider `Cc1ccc2cc1CNC(=O)[C@H](CCc1ccccc1)NC(=O)[C@@H](NC(=O)Cc1cc(Cl)c(N)c(Cl)c1)CC(=O)N1CCCC(CCO2)C1` (stereo partly drawn) [Compound 320, 2-(4-amino-3,5-dichlorophenyl)-N-((9S,12S)-5^4-methyl-8,11,14-trioxo-9-phenethyl-4-oxa-7,10-diaza-1(3,1)-piperidina-5(1,3)-benzenacyclotetradecaphane-12-yl)acetamide], for which the IC50 in assay [1] and in assay [2] was under 100 nM each time.
Consider `CC(=O)N[C@H]1CC(=O)N2CCCC(CCOc3cccc(c3)CNC(=O)[C@H](CCc3ccccc3)NC1=O)C2` (stereo partly drawn) [Compound 364, N-((9S,12S)-8,11,14-trioxo-9-phenethyl-4-oxa-7,10-diaza-1(3,1)-piperidina-5(1,3)-benzenacyclotetradecaphane-12-yl)acetamide], for which the IC50 in assay [1] and in assay [2] was under 100 nM in each case.
